Measured values from patent US20090176817A1, “Method of Treatment of Diarrhea-Predominant Irritable Bowel Syndrome in a Subject” (priority 2005, published 2009).
Like-named read-outs stand apart in the source and are kept apart here.

Key:
clinical [1] = assay type: in vitro ADME; conditions: male, human, plasma; 8 mg oral/IV, 30, 45, 120 minutes; read-out: Fraction bound
Procedure: Plasma protein binding was also measured in blood samples collected at 30, 45, and 120 minutes after dosing in a single-dose, crossover study in which cilansetron 8 mg was administered orally (solution and capsule) and intravenously to 18 male subjects. In samples where total and/or free concentrations were measurable, fraction bound was about 96-98%.

[2] = assay type: in vitro ADME
Procedure: (§1) Protein binding was also evaluated in an in vitro study in human, mouse, rat, and dog plasma using equilibrium dialysis (12-14K molecular weight cut-off membrane). This study measured the binding of (^14C)-cilansetron in plasma at nominal concentrations (30, 90, and 300 ng/mL) which are much higher than those encountered in vivo in humans. This study also measured the binding of (^14C)-cilansetron to purified human serum albumin at cilansetron concentrations ranging from 30-3000 ng/mL and to purified human alpha-1 acid glycoprotein (AAG) at concentrations ranging from 30-10000 ng/mL.

[3] = system: purified human alpha-1 acid glycoprotein (AAG); assay type: in vitro ADME
Procedure: as §1

[4] = molecular target: purified human serum albumin (Homo sapiens, UniProt P02768); assay type: in vitro ADME
Chain of purified human serum albumin (P02768 25-609): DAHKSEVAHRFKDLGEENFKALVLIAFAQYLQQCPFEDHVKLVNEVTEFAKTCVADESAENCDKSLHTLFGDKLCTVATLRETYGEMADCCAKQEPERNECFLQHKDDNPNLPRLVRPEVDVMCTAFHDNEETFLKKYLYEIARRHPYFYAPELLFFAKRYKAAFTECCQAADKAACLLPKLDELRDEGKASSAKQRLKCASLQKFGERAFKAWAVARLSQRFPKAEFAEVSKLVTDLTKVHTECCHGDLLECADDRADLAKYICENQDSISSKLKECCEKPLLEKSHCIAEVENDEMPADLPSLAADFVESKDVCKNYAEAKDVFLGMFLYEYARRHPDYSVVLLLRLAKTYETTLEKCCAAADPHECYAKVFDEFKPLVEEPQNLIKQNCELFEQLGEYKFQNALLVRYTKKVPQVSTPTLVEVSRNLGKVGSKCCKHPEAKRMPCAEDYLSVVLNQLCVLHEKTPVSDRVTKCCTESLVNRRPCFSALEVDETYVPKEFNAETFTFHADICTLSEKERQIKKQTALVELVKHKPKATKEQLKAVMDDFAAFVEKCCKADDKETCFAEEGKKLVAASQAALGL
Procedure: as §1

[5] = system: non-constipated IBS subjects; assay: Study S241.2.113: Phase II dose-ranging efficacy; assay type: in vivo, human
Procedure: Study S241.2.113 was a Phase II, double-blind, placebo-controlled, randomized, multi-center, parallel-group, dose-ranging study to investigate the efficacy and safety of cilansetron in nonconstipated subjects with irritable bowel syndrome. The study was conducted in 55 study centers in Canada, France, Austria, Germany, United Kingdom, Italy, Belgium, and The Netherlands. A total of at least 88 subjects per treatment group evaluable for efficacy were planned, in total 440 to complete the study; 776 subjects were screened; 485 subjects were randomized (479 in the safety sample). Diagnosis and main criteria for inclusion were IBS subjects satisfying the Rome criteria (1992) and minimum abdominal pain/discomfort, stool frequency and consistency determined during the run-in period.
Subjects were treated with cilansetron 1 mg, 2 mg, 4 mg and 16 mg tablets given orally TID or matching placebo tablets given orally TID for 12 weeks.
The primary efficacy parameter was the weekly global question concerning adequate relief of IBS symptoms (abdominal pain/discomfort, abnormal bowel habits). A responder is a subject who responded “Yes” at least 50% of the time after randomization, with a minimum treatment duration of four weeks.

[6] = system: diarrhea-predominant IBS subjects; assay: Study S241.3.006: safety; assay type: in vivo, human; conditions: for Constipation: human, in vivo, 12 weeks
Procedure: Safety was evaluated by physical examination, ECG, vital signs, clinical laboratory evaluations, concomitant medications, and AEs. An independent Gastrointestinal Events Review Board (GERB) was established to advise on gastrointestinal (GI) AEs during the course of the study and other safety events as considered necessary.

clinical [7] = conditions: human, in vivo; for half-life: T½
Procedure: Two randomized, double-blind, placebo controlled, balanced incomplete block design, crossover studies evaluated the single- and multiple-dose pharmacokinetics of oral cilansetron over a 8 mg to 32 mg dose range. In both studies, subjects were randomized to receive two of three treatments during 2 treatment periods. In one study (12 male and 13 female subjects, aged 23 to 36 years), subjects received 8 mg cilansetron, 16 mg cilansetron, or placebo, while in another study (12 males and 13 females, aged 23 to 41 years), subjects received 16 mg cilansetron, 32 mg cilansetron, or placebo. During each treatment period, subjects received a single dose of their assigned treatment on the first day, followed by a 3-day washout, after which they received the same treatment TID for 5 days.
There was a 5-6 day washout period between treatment periods. Doses on the mornings of pharmacokinetic days were administered under fasted conditions. Serial blood sampling and urine collection was performed up to 12 hours following morning dosing on the first day (single dose) and on the last multiple dosing day of each treatment period, and cilansetron pharmacokinetic parameters were evaluated.
In two randomized, double-blind, placebo controlled, balanced incomplete block design, crossover studies evaluating the single- and multiple-dose pharmacokinetics of oral cilansetron over a 8 mg to 32 mg dose range, subjects were randomized to receive two of three treatments during 2 treatment periods. In Study S.241.1.101; (12 male and 13 female subjects, aged 23 to 36 years), subjects received 8 mg cilansetron, 16 mg cilansetron, or placebo, while in Study S.24 1.1.102; (12 males and 13 females, aged 23 to 41 years), subjects received 16 mg cilansetron, 32 mg cilansetron, or placebo. During each treatment period, subjects received a single dose of their assigned treatment on the first day, followed by a 3-day washout, after which they received the same treatment TID for 5 days. There was a 5-6 day washout period between treatment periods. Doses on the mornings of pharmacokinetic days were administered under fasted conditions. Serial blood sampling and urine collection was performed up to 12 hours following morning dosing on the first day (single dose) and on the last multiple dosing day of each treatment period, and cilansetron pharmacokinetic parameters were evaluated.

clinical [8] = conditions: both, human, in vivo, po, 8 mg
Procedure: The effect of hepatic impairment on the pharmacokinetics of cilansetron was evaluated in a multiple-dose, parallel group study in 14 healthy and 14 moderately to severely hepatically impaired male and female subjects, aged 41-70 years. Impaired subjects (Child-Pugh score 7 to 11) were matched to healthy subjects by age (±2 years), sex, menstrual status, and smoking history status. All subjects received oral cilansetron 8 mg TID on Days 1 to 5, and a single dose on the morning of Day 6. […] Blood samples were also collected at predose on Day 1, and at predose, 1 hour and 1.5 hours postdose on Day 6, for measurement of cilansetron protein binding in serum.

## Cc1nccn1C[C@H]1CCc2c(c3cccc4c3n2CCC4)C1=O [Cilansetron, (R)-(−)-4,5,6,8,9,10-hexahydro-10-[(2-methyl-1H-imidazol-1-yl)methyl]-11H-pyrido-[3,2,1-jk]-carbazol-11-one]
Clinical [1]
  fraction unbound: 0.02 to 0.04
[2]; dog
  Plasma binding: 86.5%
[2]; mouse
  Plasma binding: 83.3%
[2]; rat
  Plasma binding: 88.2%
[3]
  Binding to AAG: around 90%
[4]
  Binding to human albumin: 65.9%
[5]; 1 mg TID
  Responder rate higher than placebo: 11%
[5]; 2 mg TID
  Responder rate better than placebo: 22%
[5]; 4 mg TID
  Responder rate higher than placebo: 8%
[5]; 16 mg TID
  Responder rate higher than placebo: 18%
[6]; 2 mg TID, 352 randomized, S241.3.006
  Number of subjects who died: 0 n (%)
[6]; female
  Constipation: 23%
[6]; male
  Constipation: 8%
Clinical [7]; both, 16 mg
  half-life: 1.35 h
Clinical [7]; both, 32 mg
  Tmax: 1 h
  AUC: 451 ng·h/mL
  Cmax: 216 ng/mL
  half-life: 1.22 h
Clinical [7]; female, 32 mg
  Tmax: 1 h
  AUC: 405 ng·h/mL
  Cmax: 210 ng/mL
  half-life: 1.08 h
Clinical [7]; female, po, 16 mg
  Tmax: 1 h
Clinical [7]; female, po, 32 mg
  Tmax: 1 h
  AUC: 433 ng·h/mL
  Cmax: 270 ng/mL
  half-life: 1.01 h
Clinical [7]; male, 32 mg
  Tmax: 1 h
  AUC: 354 ng·h/mL
  Cmax: 140 ng/mL
  half-life: 1.4 h
Clinical [7]; male, po, 16 mg
  Tmax: 1 h
Clinical [7]; male, po, 32 mg
  Tmax: 1.5 h
  AUC: 469 ng·h/mL
  Cmax: 161 ng/mL
  half-life: 1.44 h
Clinical [8]; AUC(0-τ), Geom. LS Mean
  AUC: 334 ng·h/mL
Clinical [8]
  Cmax: 94.4 ng/mL
Clinical [8]; Geom. LS Mean
  Cmax: 83.9 ng/mL
Clinical [8]; Tmax
  Tmax: 0.75 h
Clinical [8]; T½
  half-life: 8.16 h
Clinical [8]; Vz/F
  Vd/F: 388 L
